Data published in patent US20090186929A1, “Method and agent for inducing apoptosis/cell death in leukemia cells” (U.S. DEPARTMENT OF VETERANS AFFAIRS, priority 2003, published 2009).
Where a name gives a salt, the structure may show the parent alone. Read-outs that look alike come from different tables or passages of the source. One block for each molecule: values may come before it.

Assays:
[1] = biological target: T1, purified human NOS1 (Homo sapiens, UniProt P29475); experiment: Inhibition of purified NOS1 enzyme activity; assay type: biochemical; conditions: mean ± SEM, N = 3
T1 construct: determined using purified recombinant full-length human NOS1 and NOS2
Procedure: (§1) The NOS1 and NOS2 IC50's and Kd's for each NOS inhibitor were determined using purified recombinant full-length human NOS1 and NOS2. The cLogP value for each NOS inhibitor was determined using the CLOGP computer program (BioByte, Claremont, Calif.). […] Linear regression was used to examine the correlation between the IC50, Kd and cLogP values and ED50 values.
(§2) We determined the dissociation constant for NOS inhibitor binding (Kd) to purified recombinant and NOS2.

[2] = biological target: T2, purified human NOS2 (Homo sapiens, UniProt P35228); experiment: Inhibition of purified NOS2 enzyme activity; assay type: biochemical; conditions: mean ± SEM, N = 3
T2 construct: determined using purified recombinant full-length human NOS1 and NOS2
Procedure: as §1, §2

[3] = tested on: CLL cells; experiment: Cytotoxicity of NOS inhibitors for CLL cells in vitro (MTS assay); conditions: for EC50: read-out: Mean ED50 ± S.E.M. (CLL cell cytotoxicity)
From the text: We worked to optimize the culture of CLL cells (Reference 86). […] These were all tested with and without albumin, fetal bovine serum, human serum, glutamine, insulin, transferrin, selenium, and mercaptoethanol.
Toxicity could be detected by disappearance of cells from the culture (reduction in overall cell number), uptake of trypan blue, propidium iodide uptake (flow cytometry), MTS (4,5-dimethylthiazol-2-yl)-5-(3-carboxymethoxyphenyl)-2-(4-sulfophenyl)-2H-tetrazolium, inner salt) assay (cellular respiration), and several parameters of apoptosis [annexin V assay, DNA content […], and TUNEL assay].

[4] = biological target: T3, purified recombinant rat NOS1 oxygenase domain (Rattus norvegicus, UniProt P29476); experiment: NOS inhibitor binding (Kd) to NOS1
T3 construct: purified recombinant rat NOS1 oxygenase domain

[5] = biological target: T4, purified recombinant human NOS2 oxygenase domain (Homo sapiens, UniProt P35228); experiment: NOS inhibitor binding (Kd) to NOS2
T4 construct: purified recombinant human NOS2 oxygenase domain
Procedure: […] The cLogP value for each NOS inhibitor was determined using the CLOGP computer program (BioByte, Claremont, Calif.). […] Linear regression was used to examine the correlation between the IC50, Kd and cLogP values and ED50 values.
as §2

[6] = tested on: freshly-isolated CLL cells; experiment: Exogenous NO donors and drugs on freshly-isolated CLL cells (apoptosis and death); assay type: cell-based, human; conditions: for NO / DETA-NO interaction with the agent's activity on CLL cells: combination of the agent with NO donor
From the text: We next wanted to examine CLL cells. These malignant cells differ in many ways from ANLL and normal hematopoietic. In addition to their different lineage, they are unique in that they have a very low […], exist primary in the G0 phase of the cell cycle, and have defective apoptosis.

[7] = 50 mg/kg in mice; cited from earlier work
[8] = tested on: HL-60 myeloblastic leukemia cells; experiment: NO drugs on growth of HL-60 myeloblastic leukemia cells; assay type: cell-based, human; conditions: NO delivered from the drug
From the text: While studying NO and macrophages progressed in the late 1980s, we hypothesized that NO produced in the BM (bone marrow) would be a modulator of normal and leukemic hematopoiesis. […] The differentiated cells were vacuolated, and had increased expression of nonspecific esterase, CD11b, and CD14.

[9] = tested on: normal human BM cells; experiment: NO drugs on colony formation of normal human BM cells; assay type: cell-based; conditions: for Development of marrow colonies: methylcellulose with erythropoietin and colony stimulating factors
Procedure: The effects of NO on the growth and differentiation of normal human BM cells were analyzed (Reference 85). We felt that normal hematopoietic cells, like malignant hematopoietic cells, would be affected by NO. […] NO reduced formation of BFU-E (burst forming unit-erythroid), CFU-E, CFU-GM (colony forming unit-granulocyte/macrophage), and CFU-M (colony forming unit-macrophage). […] In retrospect, we think that the increase in CFU-GM by NO from SNP may be due to alterations in apoptosis secondary to changes in bcl-2 or caspases. None of the noted inhibitions were related to cGMP (cyclic-guanosine monophosphate).

[10] = tested on: CLL cell caspase-3; experiment: CLL cell caspase-3 enzyme activity after culture with AR-R17477; assay type: cell-based, human; conditions: for Mean caspase-3 activity: 4 h culture, N = 3
[11] = tested on: CLL cells; experiment: CLL cell apoptosis by Annexin V binding; assay type: cell-based, human
Procedure: Annexin V binding to CLL cells increased after CLL cell co-culture for 2-6 h.

[12] = tested on: HL-60 and U937 cells; experiment: NO donor inhibition of leukemia cell and colony growth; assay type: cell-based, human
From the text: To more closely examine the mechanism of toxicity for myeloid leukemia cells, we did work to determine whether the rate of NO delivery affected its growth inhibition of acute nonlymphocytic leukemia cells. We also wanted to determine whether the NO inhibition of cell growth is associated induction of apoptosis. We treated HL-60 and U937 cells with three compounds that generate the same amount of NO but different rates. […] Furthermore, NO-induced growth inhibition was associated with apoptosis in a rate and concentration-dependent fashion (Reference 39).

[13] = MTS assay, CLL cell samples from different subjects

T2 sequence (P35228 whole entry): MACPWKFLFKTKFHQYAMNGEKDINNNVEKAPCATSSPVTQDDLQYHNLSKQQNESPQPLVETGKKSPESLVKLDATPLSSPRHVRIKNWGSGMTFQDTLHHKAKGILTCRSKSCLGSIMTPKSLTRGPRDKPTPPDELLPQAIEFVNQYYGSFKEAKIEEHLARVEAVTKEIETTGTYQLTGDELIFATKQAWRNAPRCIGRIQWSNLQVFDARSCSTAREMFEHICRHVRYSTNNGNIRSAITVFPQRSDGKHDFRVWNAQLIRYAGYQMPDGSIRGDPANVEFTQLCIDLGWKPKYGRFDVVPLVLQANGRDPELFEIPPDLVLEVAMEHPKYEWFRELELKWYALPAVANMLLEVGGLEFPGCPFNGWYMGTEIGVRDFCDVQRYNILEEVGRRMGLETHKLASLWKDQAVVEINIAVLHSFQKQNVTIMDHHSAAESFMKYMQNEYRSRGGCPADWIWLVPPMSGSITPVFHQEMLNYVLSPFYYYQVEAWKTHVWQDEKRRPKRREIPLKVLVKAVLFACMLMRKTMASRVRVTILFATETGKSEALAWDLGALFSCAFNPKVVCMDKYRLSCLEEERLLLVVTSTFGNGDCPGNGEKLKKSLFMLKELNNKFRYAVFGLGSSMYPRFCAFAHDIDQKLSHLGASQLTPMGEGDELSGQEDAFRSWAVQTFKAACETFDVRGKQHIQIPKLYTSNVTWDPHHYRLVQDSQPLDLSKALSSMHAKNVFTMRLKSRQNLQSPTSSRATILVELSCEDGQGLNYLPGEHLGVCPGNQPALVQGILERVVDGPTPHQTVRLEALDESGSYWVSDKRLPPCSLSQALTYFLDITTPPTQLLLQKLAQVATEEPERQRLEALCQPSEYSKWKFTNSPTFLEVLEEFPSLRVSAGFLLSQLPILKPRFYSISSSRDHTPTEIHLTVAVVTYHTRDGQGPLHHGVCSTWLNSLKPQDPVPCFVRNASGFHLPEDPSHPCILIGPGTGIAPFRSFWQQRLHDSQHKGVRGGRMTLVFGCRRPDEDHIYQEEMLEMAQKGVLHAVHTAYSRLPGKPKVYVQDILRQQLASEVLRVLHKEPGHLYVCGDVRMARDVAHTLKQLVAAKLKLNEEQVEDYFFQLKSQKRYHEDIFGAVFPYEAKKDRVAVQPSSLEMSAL
T3 sequence (P29476 1-720 limits assumed): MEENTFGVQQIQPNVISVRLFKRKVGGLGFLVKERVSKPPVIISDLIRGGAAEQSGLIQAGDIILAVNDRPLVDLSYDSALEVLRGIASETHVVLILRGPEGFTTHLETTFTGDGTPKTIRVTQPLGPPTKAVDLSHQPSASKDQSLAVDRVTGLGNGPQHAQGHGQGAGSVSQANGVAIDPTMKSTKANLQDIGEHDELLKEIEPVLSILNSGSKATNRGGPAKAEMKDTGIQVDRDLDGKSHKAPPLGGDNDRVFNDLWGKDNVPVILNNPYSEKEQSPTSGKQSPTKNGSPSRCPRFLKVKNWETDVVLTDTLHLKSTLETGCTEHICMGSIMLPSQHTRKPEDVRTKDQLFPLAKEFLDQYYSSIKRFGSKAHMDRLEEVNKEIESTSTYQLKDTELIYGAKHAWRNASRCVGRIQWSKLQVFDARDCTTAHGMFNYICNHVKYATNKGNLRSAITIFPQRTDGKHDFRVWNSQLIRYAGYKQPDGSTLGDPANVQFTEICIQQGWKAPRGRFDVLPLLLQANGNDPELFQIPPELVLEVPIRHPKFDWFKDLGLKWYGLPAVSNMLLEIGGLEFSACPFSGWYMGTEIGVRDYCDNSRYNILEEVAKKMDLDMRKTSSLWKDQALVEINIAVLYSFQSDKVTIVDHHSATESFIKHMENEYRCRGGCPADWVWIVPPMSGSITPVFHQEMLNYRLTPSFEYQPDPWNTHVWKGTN
T1 sequence (P29475 whole entry): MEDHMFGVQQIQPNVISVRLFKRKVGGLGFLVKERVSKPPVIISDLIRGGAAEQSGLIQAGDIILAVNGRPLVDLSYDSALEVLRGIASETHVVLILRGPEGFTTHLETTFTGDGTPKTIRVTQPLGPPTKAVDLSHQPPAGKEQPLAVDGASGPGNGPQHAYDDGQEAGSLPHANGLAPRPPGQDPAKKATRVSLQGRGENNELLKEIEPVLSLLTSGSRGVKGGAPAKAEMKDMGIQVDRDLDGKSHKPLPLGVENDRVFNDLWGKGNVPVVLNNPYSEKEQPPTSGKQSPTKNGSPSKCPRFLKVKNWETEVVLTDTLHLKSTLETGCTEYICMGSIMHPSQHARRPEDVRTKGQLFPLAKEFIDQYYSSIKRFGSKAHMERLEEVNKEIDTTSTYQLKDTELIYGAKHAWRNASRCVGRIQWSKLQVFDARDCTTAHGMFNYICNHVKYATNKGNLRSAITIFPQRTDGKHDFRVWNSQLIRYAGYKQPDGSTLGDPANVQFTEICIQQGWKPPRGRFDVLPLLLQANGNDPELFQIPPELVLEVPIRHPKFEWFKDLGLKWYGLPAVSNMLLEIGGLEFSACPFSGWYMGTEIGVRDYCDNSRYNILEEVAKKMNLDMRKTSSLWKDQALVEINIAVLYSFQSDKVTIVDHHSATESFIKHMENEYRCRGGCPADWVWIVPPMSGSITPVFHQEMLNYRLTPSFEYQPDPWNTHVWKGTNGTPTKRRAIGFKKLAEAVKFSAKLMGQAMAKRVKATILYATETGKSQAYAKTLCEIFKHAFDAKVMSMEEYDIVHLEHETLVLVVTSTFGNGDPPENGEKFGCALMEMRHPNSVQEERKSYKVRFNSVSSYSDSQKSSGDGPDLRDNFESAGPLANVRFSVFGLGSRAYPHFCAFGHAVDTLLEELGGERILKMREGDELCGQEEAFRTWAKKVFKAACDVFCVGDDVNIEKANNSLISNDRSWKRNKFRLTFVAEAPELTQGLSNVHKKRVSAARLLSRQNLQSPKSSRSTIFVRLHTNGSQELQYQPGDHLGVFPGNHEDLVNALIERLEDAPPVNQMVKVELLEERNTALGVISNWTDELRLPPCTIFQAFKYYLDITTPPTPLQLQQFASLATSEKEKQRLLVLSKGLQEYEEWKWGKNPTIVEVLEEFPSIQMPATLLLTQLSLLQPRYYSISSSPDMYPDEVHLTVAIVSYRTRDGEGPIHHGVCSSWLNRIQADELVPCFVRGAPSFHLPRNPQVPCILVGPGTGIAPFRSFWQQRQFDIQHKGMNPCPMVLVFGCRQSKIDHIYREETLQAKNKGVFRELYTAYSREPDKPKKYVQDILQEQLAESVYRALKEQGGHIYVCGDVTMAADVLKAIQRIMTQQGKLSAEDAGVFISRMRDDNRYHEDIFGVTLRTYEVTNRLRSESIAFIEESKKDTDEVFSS
T4 sequence (P35228 1-504 limits assumed): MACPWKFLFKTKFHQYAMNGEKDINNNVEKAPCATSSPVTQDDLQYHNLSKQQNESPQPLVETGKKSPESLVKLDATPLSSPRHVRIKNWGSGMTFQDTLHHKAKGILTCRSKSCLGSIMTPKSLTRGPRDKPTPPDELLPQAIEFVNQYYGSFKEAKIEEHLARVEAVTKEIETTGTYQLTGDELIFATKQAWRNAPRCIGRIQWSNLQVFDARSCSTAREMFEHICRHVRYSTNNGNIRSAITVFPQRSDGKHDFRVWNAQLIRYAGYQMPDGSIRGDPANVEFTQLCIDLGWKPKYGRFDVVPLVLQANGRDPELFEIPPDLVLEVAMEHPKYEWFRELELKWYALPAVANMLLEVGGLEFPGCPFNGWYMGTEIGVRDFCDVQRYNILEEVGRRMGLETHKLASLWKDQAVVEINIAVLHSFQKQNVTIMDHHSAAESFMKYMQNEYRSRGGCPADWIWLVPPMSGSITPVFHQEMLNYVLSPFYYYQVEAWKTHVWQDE

IC50 [1]: 7.7 ± 1.8 µM
IC50 [2]: 1200 ± 290 µM
Molecule: CCSC(=N)N [S-Ethyl ITU, S-Ethylisothiourea HBr]

IC50 [1]: 0.092 ± 0.002 µM
IC50 [2]: 0.054 ± 0.001 µM
Molecule: CC1CCN=C(N)S1 (stereo not shown) [AMT, 2-Amino-5,6-dihydro-6-methyl-4H-1.3-thiazine HCl]

IC50 [1]: 140 ± 15 µM
IC50 [2]: 1.8 ± 0.3 µM
Molecule: CC(=N)NCCSCC[C@H](N)C(=O)O [GW274150, (S)-2-Amino-(1-iminoethylamino)-5-thioheptanoic acid]

Molecule: CSC(=N)N [S-Methyl ITU, S-methylisothiourea sulfate]
EC50 [3, 13]: 3080 ± 423 µM

Kd [4]: 0.7 µM
IC50 [1]: 47 ± 1.2 µM
Kd [5]: 0.5 µM
IC50 [2]: 2.1 µM
Molecule: CC(=N)NCCCC[C@H](N)C(=O)O [L-NIL, L-N^6-(1-Iminoethyl)-lysine]

Molecule: NCCNCCN [DETA]
Effect on CLL cell apoptosis and death [6]: had no effects

Molecule: COc1nc(N)nc2c1ncn2[C@@H]1O[C@H](CO)[C@@H](O)[C@@H]1O [506U78, 2-amino-9-β-D-6-methoxy araguanine]
NO / DETA-NO interaction with the agent's activity on CLL cells [6]: synergized

Molecule: Nc1ccn([C@@H]2O[C@H](CO)[C@@H](O)C2(F)F)c(=O)n1 [gemcitabine]
NO / DETA-NO interaction with the agent's activity on CLL cells [6]: did not enhance the activity

Molecule: Mercaptoethylguanidine sodium succinate [MEG]
EC50 [3, 13]: 181 ± 36.4 µM

Molecule: CC1(C)N([O])C(c2ccc(C(=O)O)cc2)=[N+]([O-])C1(C)C [carboxy-PTIO]
Cytotoxicity for CLL cells (in words) [3]: not cytotoxic

Molecule: COc1cccc2c1C(=O)c1c(O)c3c(c(O)c1C2=O)C[C@@](O)(C(=O)CO)C[C@@H]3O[C@H]1C[C@H](N)[C@H](O)[C@H](C)O1 [doxorubicin]
NO / DETA-NO interaction with the agent's activity on CLL cells [6]: did not enhance the activity

IC50 [1]: 72 ± 16 µM
IC50 [2]: 45 ± 5.9 µM
Molecule: O=[N+]([O-])c1cccc2cn[nH]c12 [7-NI, 7-Nitroindazole]
EC50 ([3]; Homo sapiens, CLL cell): 200 ± 29 µM
Effect on anxiety and depression [7]: effective at reducing anxiety and depression
Side effects [7]: mild motor incoordination

Molecule: S-nitrosoacetylpenicillamine [SNAP]
Growth of HL-60 cells [8]: potently inhibited the growth
Erythroid and myeloid colonies ([9]; isolated CD34+ cells): inhibited
Development of marrow colonies [9]: inhibited development of marrow colonies

Molecule: Cl.Cl.N=C(Nc1ccc(CCNCc2cccc(Cl)c2)cc1)c1cccs1 [AR-R17477, N-(4-(2-((3-Chlorophenylmethyl)amino)ethyl)phenyl)-2-thiophecarboxamidine dihydrochloride]
Mean caspase-3 activity ([10]; 5 μM): 9741 arbitrary fluorescence units
Mean caspase-3 activity ([10]; 10 μM): 7474 arbitrary fluorescence units
Mean caspase-3 activity ([10]; 20 μM): 8074 arbitrary fluorescence units
CLL cell caspase-3 enzyme activity (time course) ([10]; co-culture for 4 to 19 h): increased
CLL cell caspase-3 enzyme activity (concentration dependence) ([10]; various concentrations, 4 h): dose-dependent increase
ED50 ranking, FIG. 10 ([3]; cytotoxicity for CLL cells in vitro): lowest ED50
EC50 [3, 13]: 7 ± 0.7 µM
CLL cell apoptosis [11]: induced CLL cell apoptosis
Annexin V binding to CLL cells ([11]; co-culture for 2-6 h): increased

Kd [4]: 0.1 µM
IC50 [1]: 7.8 ± 2.5 µM
Kd [5]: 0.5 µM
IC50 [2]: 1500 ± 240 µM
Molecule: CCSC(=N)Nc1ccc(C(F)(F)F)cc1 [ETPI, S-Ethyl-N-[4-(trifluoromethyl)phenyl]isothiourea HCl]
EC50 ([3]; Homo sapiens, CLL cell): 129 ± 20 µM

IC50 [1]: 3.8 ± 0.5 µM
IC50 [2]: 1.9 ± 0.2 µM
Molecule: N=C(N)SCCCN [S-Aminopropyl ITU, S-(3-Aminopropyl)isothiourea 2HBr]
EC50 ([3]; Homo sapiens, CLL cell): 112 ± 45.5 µM

IC50 [1]: 4.7 ± 0.8 µM
IC50 [2]: 1.6 ± 0.3 µM
Molecule: N=C(N)SCCc1cccc(CCSC(=N)N)c1 [1,3 PB-ITU, S,S′-(1,3-Phenylene-bis(1,2-ethanediyl))bis-isothiourea 2HBr]
EC50 ([3]; Homo sapiens, CLL cell): 293 ± 26.5 µM

IC50 [1]: 280 ± 80 µM
IC50 [2]: 50 ± 9.5 µM
Molecule: N=C(N)NCCSSCCNC(=N)N [GED, Guanidinoethyldisulfide 2H2CO3]
EC50 ([3]; Homo sapiens, CLL cell): 317 ± 77 µM

Kd [5]: 7 µM
IC50 [2]: 146 ± 36 µM
Molecule: CCCNC(=N)NCCC[C@H](N)C(=O)O [N-Propyl-L-arginine, N^5-[Imino(propylamino)methyl]-L-ornithine]

Molecule: O=[N+]([O-])c1cccc2c(Br)n[nH]c12 [3-Bromo-7-NI, 3-Bromo-7-nitroindazole]
EC50 ([3]; Homo sapiens, CLL cell): 225 ± 20 µM

Molecule: FC(F)(F)c1ccccc1-n1ccnc1 [TRIM, 1-(2-Trifluoromethylphenyl)imidazole]
EC50 ([3]; Homo sapiens, CLL cell): 421 ± 61 µM
Effect on anxiety and depression [7]: effective at reducing anxiety and depression
Side effects [7]: mild motor incoordination

Molecule: O=C(O)CCCc1ccc(N(CCCl)CCCl)cc1 [chlorambucil]
NO / DETA-NO interaction with the agent's activity on CLL cells [6]: did not enhance the activity

Molecule: NCCN(CCN)/[N+]([O-])=N/O [DETA-NO, (Z)-1-[N-(2-aminoethyl)-N-(2-ammonioethyl)amino]diazen-1-ium-1,2-diolate-NO]
Interaction of DETA-NO with fludarabine in killing CLL cells ([6]; combination with fludarabine): acted synergistically
Inhibition of leukemia cell and colony growth [12]: most potent inhibitor

Molecule: CCc1c2c(nc3ccc(O)cc13)-c1cc3c(c(=O)n1C2)COC(=O)[C@]3(O)CC [SN-38]
NO / DETA-NO interaction with the agent's activity on CLL cells [6]: did not enhance the activity

Molecule: CC(=N)NCc1cccc(CN)c1 [1400W, N-(3-(Aminomethyl)benzyl)acetamidine 2HCl]
EC50 ([3]; Homo sapiens, CLL cell): 8240 ± 1880 µM

Molecule: C/C1=C2/[N-][C@H]([C@H](CC(N)=O)[C@@]2(C)CCC(=O)NC[C@@H](C)OP(=O)([O-])O[C@H]2[C@@H](O)[C@@H](n3cnc4cc(C)c(C)cc43)O[C@@H]2CO)[C@]2(C)N=C(/C(C)=C3N=C(/C=C4N=C1[C@@H](CCC(N)=O)C\4(C)C)[C@@H](CCC(N)=O)[C@]\3(C)CC(N)=O)[C@@H](CCC(N)=O)[C@]2(C)CC(N)=O.[Co+3].[OH-] [hydroxycobalamin]
Cytotoxicity for CLL cells (in words) [3]: not cytotoxic

Molecule: N=C(NCCC[C@H](N)CNCCN)N[N+](=O)[O-] [NAAANG, (4S)-N-(4-Amino-5[aminoethyl]aminopentyl)-N′-nitroguanidine 3TFA]
EC50 ([3]; Homo sapiens, CLL cell): 5230 ± 3200 µM

Molecule: N=C(N)SCCc1ccc(CCSC(=N)N)cc1 [1,4 PB-ITU, S,S′-(1,4-Phenylene-bis(1,2-ethanediyl))bis-isothiourea 2HBr]
EC50 ([3]; Homo sapiens, CLL cell): 321 ± 38.9 µM

Molecule: [NH-]c1c[n+](N2CCOCC2)no1 [SIN-1]
Growth of HL-60 cells [8]: potently inhibited the growth
Development of marrow colonies [9]: inhibited development of marrow colonies

Kd [4]: 0.5 µM
IC50 [1]: 0.89 ± 0.06 µM
Kd [5]: 0.6 µM
IC50 [2]: 17 ± 1.5 µM
Molecule: COC(=O)[C@@H](N)CCCNC(N)=N[N+](=O)[O-] [L-NAME, N^G-Nitro-L-arginine-methyl ester HCl]
EC50 ([3]; Homo sapiens, CLL cell): 7220 ± 1300 µM

Molecule: O=c1[nH]cc(F)c(=O)[nH]1 [5-fluorouracil]
NO / DETA-NO interaction with the agent's activity on CLL cells [6]: did not enhance the activity
